Measurements: patent US20250230193A1, “CYCLIC COMPOUND HAVING SELECTIVE KRAS INHIBITORY EFFECT ON HRAS AND NRAS” (CHUGAI SEIYAKU KABUSHIKI KAISHA, priority 2022, published 2025)
*1 amine or outer side, *2 acyl side, *3 side chain or, on linkers, in order; H or OH if unused. Where a SMILES comes first, the peptide text is derived from it. Bridges are numbered along the chain shown (N, C = ends). [ ]: non-standard residue; d: D form. The star is where a group is joined. hPhe(3-Cl-4-CF3) = N[C@@H](CCc1ccc(C(F)(F)F)c(Cl)c1)C(=O)O; NPrPhe(4-CF3) = CCCN[C@@H](Cc1ccc(C(F)(F)F)cc1)C(=O)O; X39 = Cc1ccc(C[C@@H](C(=O)[*:2])N(CC(C)C)[*:1])cc1; NMeGly(cPent) = CN[C@H](C(=O)O)C1CCCC1; Pro(4,4-F2) = O=C(O)[C@@H]1CC(F)(F)CN1; NMeGly(cBu) = CN[C@H](C(=O)O)C1CCC1; NMeD = CN[C@@H](CC(=O)O)C(=O)O; NMeL = CN[C@@H](CC(C)C)C(=O)O; Morpholide = C1CN(*)CCO1; NMeA = CN[C@@H](C)C(=O)O; Ac5c = NC1(C(=O)O)CCCC1; Aze = O=C(O)[C@@H]1CCN1; Ac4c = NC1(C(=O)O)CCC1; Sar = CNCC(=O)O

Tests used:
[1] = molecular target: GDP-bound NRAS wild-type protein (Homo sapiens, UniProt P01111); test: Binding to NRAS by surface plasmon resonance (SPR), Single Cycle Kinetics; conditions: KD ratio NRAS/KRAS
[2] = molecular target: GDP-bound HRAS wild-type protein (Homo sapiens, UniProt P01112); test: Binding to HRAS by surface plasmon resonance (SPR), Single Cycle Kinetics; conditions: KD ratio HRAS/KRAS
Sequence of GDP-bound HRAS wild-type protein (P01112 whole entry): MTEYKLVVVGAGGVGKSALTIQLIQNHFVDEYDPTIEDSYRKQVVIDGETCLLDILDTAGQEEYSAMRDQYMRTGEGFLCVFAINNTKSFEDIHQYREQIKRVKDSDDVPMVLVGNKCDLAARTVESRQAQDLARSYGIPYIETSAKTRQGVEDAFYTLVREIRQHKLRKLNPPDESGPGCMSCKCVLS

Sequence of GDP-bound NRAS wild-type protein (P01111 whole entry): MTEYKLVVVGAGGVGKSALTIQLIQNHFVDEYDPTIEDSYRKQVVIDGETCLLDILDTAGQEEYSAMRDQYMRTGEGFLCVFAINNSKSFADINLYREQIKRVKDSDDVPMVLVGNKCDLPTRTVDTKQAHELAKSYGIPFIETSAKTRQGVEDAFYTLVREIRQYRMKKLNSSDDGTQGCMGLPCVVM

## CCO[C@@H]1C[C@H]2C(=O)NC3(CC(C)(C)C3)C(=O)N(C)[C@@H](C3CCCC3)C(=O)N(C)[C@H](C(=O)N3CCCC3)CC(=O)N(C)[C@H]3CCC/C=C/c4ccc(cc4)C[C@@H](C(=O)N(C)CC(=O)N[C@@H](CCc4cc(F)c(C(F)(F)F)c(F)c4)C(=O)N2C1)N1CC/C=C\C[C@@H](C1=O)N(C)C(=O)CN(C1CC1)C(=O)[C@H]([C@@H](C)CC)NC3=O [PP2583]
[1]; class symbols
  NRAS/KRAS (ratio of KD value with respect to GDP-bound NRAS wild-type protein to KD value with respect to KRAS): A (a compound having 10 or more and less than 20 is denoted as A)
[2]; class symbols
  HRAS/KRAS (ratio of KD value with respect to GDP-bound HRAS wild-type protein to KD value with respect to KRAS): A (a compound having 10 or more and less than 20 is denoted as A)

## CCC[C@H]1C(=O)N[C@@H]([C@@H](C)CC)C(=O)N(C)CC(=O)N(C)[C@H]2C/C=C\CCN(C2=O)[C@@H](Cc2ccc(C)cc2)C(=O)N(C)CC(=O)N[C@@H](CCc2ccc(Cl)c(Cl)c2)C(=O)N2C[C@H](OC(C)C)C[C@H]2C(=O)NC2(CC(C)(C)C2)C(=O)N(C)[C@@H](C(CC)CC)C(=O)N(C)[C@H](C(=O)N(C)C)CC(=O)N1C [PP2537]
[1]; class symbols
  NRAS/KRAS (ratio of KD value with respect to GDP-bound NRAS wild-type protein to KD value with respect to KRAS): AA (a compound having 20 or more is denoted as AA)
[2]; class symbols
  HRAS/KRAS (ratio of KD value with respect to GDP-bound HRAS wild-type protein to KD value with respect to KRAS): A (a compound having 10 or more and less than 20 is denoted as A)

## CCCN1C(=O)[C@@H]2CCN2C(=O)[C@H](C)N(C)C(=O)[C@H]([C@@H](C)CC)NC(=O)[C@H](CC(C)C)N(C)C(=O)C[C@@H](C(=O)N(C)C)N(C)C(=O)[C@H](C2CCCC2)N(C)C(=O)C2(CCC2)NC(=O)[C@@H]2CC(F)(F)CN2C(=O)[C@H](CCc2ccc(C(F)(F)F)c(Cl)c2)NC(=O)CN(C)C(=O)[C@@H]1Cc1ccc(C(F)(F)F)cc1 [PP0437] ([NMeL]I[NMeA][Aze][NPrPhe(4-CF3)][Sar][hPhe(3-Cl-4-CF3)][Pro(4,4-F2)][Ac4c][NMeGly(cPent)][NMeD]-NMe2; lactam N-11)
[1]; SPR
  NRAS/KRAS (ratio of KD value with respect to GDP-bound NRAS wild-type protein to KD value with respect to KRAS): C (A compound having a KD ratio of 0.1 or more and less than 3 is denoted as C)
[2]; SPR
  HRAS/KRAS (ratio of KD value with respect to GDP-bound HRAS wild-type protein to KD value with respect to KRAS): B (a compound having 3 or more and less than 10 is denoted as B)

## CC[C@H](C)[C@@H]1NC(=O)[C@H](CC(C)C)N(C)C(=O)C[C@@H](C(=O)N2CCOCC2)N(C)C(=O)[C@H](C2CCCC2)N(C)C(=O)C2(CCCC2)NC(=O)[C@@H]2CCCN2C(=O)[C@H](CCc2ccc(C(F)(F)F)c(Cl)c2)NC(=O)CN(C)C(=O)[C@H](Cc2ccc(C)cc2)N(CC(C)C)C(=O)CN(C)C(=O)CN(C)C1=O [PP0063] ([NMeL]I[Sar][Sar][X39][Sar][hPhe(3-Cl-4-CF3)]P[Ac5c][NMeGly(cPent)][NMeD]-Morpholide; lactam N-11)
[1]; SPR
  NRAS/KRAS (ratio of KD for GDP-bound NRAS wild-type to KD for KRAS): C (A compound having a KD ratio of 0.1 or more and less than 3 is denoted as C)
[2]; SPR
  HRAS/KRAS (ratio of KD for GDP-bound HRAS wild-type to KD for KRAS): C (A compound having a KD ratio of 0.1 or more and less than 3 is denoted as C)

## CCO[C@@H]1C[C@H]2C(=O)NC3(CCC3)C(=O)N(C)[C@@H](C3CCCC3)C(=O)N(C)[C@H](C(=O)N3CCOCC3)CC(=O)N(C)[C@@H](CC(C)C)C(=O)N[C@@H]([C@@H](C)CC)C(=O)N(C)CC(=O)N(C)[C@H]3CCCCCN(C3=O)[C@@H](Cc3ccc(C(F)(F)F)cc3)C(=O)N(C)CC(=O)N[C@@H](CCc3cc(F)c(C(F)(F)F)c(F)c3)C(=O)N2C1 [PP0467]
[1]; SPR
  NRAS/KRAS (ratio of KD value with respect to GDP-bound NRAS wild-type protein to KD value with respect to KRAS): B (a compound having 3 or more and less than 10 is denoted as B)
[2]; SPR
  HRAS/KRAS (ratio of KD value with respect to GDP-bound HRAS wild-type protein to KD value with respect to KRAS): B (a compound having 3 or more and less than 10 is denoted as B)

## CCCN1C(=O)CN(C)C(=O)CN(C)C(=O)[C@H]([C@@H](C)CC)NC(=O)[C@H](C2CCC2)N(C)C(=O)C[C@@H](C(=O)N2CCOCC2)N(C)C(=O)[C@H](C2CCCC2)N(C)C(=O)C2(CCCC2)NC(=O)[C@@H]2CC(F)(F)CN2C(=O)[C@H](CCc2ccc(C(F)(F)F)c(Cl)c2)NC(=O)CN(C)C(=O)[C@@H]1Cc1ccc(C(F)(F)F)cc1 [PP0200] ([NMeGly(cBu)]I[Sar][Sar][NPrPhe(4-CF3)][Sar][hPhe(3-Cl-4-CF3)][Pro(4,4-F2)][Ac5c][NMeGly(cPent)][NMeD]-Morpholide; lactam N-11)
[1]; SPR
  NRAS/KRAS (ratio of KD for GDP-bound NRAS wild-type to KD for KRAS): C (A compound having a KD ratio of 0.1 or more and less than 3 is denoted as C)
[2]; SPR
  HRAS/KRAS (ratio of KD for GDP-bound HRAS wild-type to KD for KRAS): C (A compound having a KD ratio of 0.1 or more and less than 3 is denoted as C)

## CC[C@H](C)[C@@H]1NC(=O)[C@H](CC(C)C)N(C)C(=O)C[C@@H](C(=O)N2CCCCC2)N(C)C(=O)[C@H](C2CCCC2)N(C)C(=O)C2(CCCC2)NC(=O)[C@@H]2CCCN2C(=O)[C@H](CCc2cc(F)c(C(F)(F)F)c(F)c2)NC(=O)CN(C)C(=O)[C@H](Cc2ccc(C(F)(F)F)cc2)N2CCCCC[C@@H](C2=O)N(C)C(=O)CN(C)C1=O [PP0510]
[1]; SPR
  NRAS/KRAS (ratio of KD value with respect to GDP-bound NRAS wild-type protein to KD value with respect to KRAS): B (a compound having 3 or more and less than 10 is denoted as B)
[2]; SPR
  HRAS/KRAS (ratio of KD value with respect to GDP-bound HRAS wild-type protein to KD value with respect to KRAS): B (a compound having 3 or more and less than 10 is denoted as B)
